Source: patent US20250376472A1, “3-(PHENYLSULFONYL)-[1,2,3]TRIAZOLO[1,5A]QUINAZOLIN-5(4H)-ONE DERIVATIVES” (priority 2022, published 2025)

Target: T1, AgrA (Staphylococcus aureus, UniProt P0A0I7)
T1 construct: endogenous in cells; host or cells: S. aureus USA300 strain UAMS-1625 carrying a P3-lacZ reporter plasmid
Test: cell-based
Set-up: species or system S. aureus
Settings: for Ratio IC50 (in presence of HSA)/IC50 (in absence of HSA): 40 mg/mL HSA versus no HSA
Experimental: The inventive compounds are 3-(phenylsulfonyl)-[1,2,3]triazolo[1,5a]quinazolin-5(4h)-one derivatives comprising an N-bound piperazine or homopiperazine at the 8-position of the [1,2,3]triazolo[1,5a]quinazolin-5(4h)-one core, further substituted (on the second nitrogen atom) by an (optionally substituted) acetyl or propionyl amide group. […] Specifically, the reporter gene lacZ (which encodes the protein product β-galactosidase) was transfected into S. aureus with a plasmid under control of the P3 promoter. The compounds were serially diluted in lysogeny broth (LB), and incubated with S. aureus. Following incubation, the S. aureus cells were lysed and treated with 4-methylumbelliferyl-galactopyranoside (MUG). The β-galactosidase produced by expression of lacZ cleaved the MUG into galactopyranose and 4-methylumbelliferone, which was measured by fluorescence.
The resulting reporter strain was used to measure AgrA inhibitory activity as follows. From an overnight culture plate, cells were resuspended in 0.9% (w/v) saline solution and bacterial inoculum was prepared in LB medium with 5×10^5 CFU/ml. Compounds were two-fold serially diluted in LB and 50 μL of this 10× concentrated samples were added into the 96-deep well plate. 500 μL of bacterial suspension was finally added to the compounds or DMSO control. Plates were covered and incubated with shaking at 37° C. After 18 hours incubation, 100 μL was transferred to a new clear 96-well plate and the OD600 was measured using a TECAN Infinite F200 microplate reader to control for growth inhibition. Another 100 μL was transferred to a new black 96-well plate containing 30 μL of lysis buffer (20 mM Tris/HCl, 3 mM MgCl2, 0.5% Tween 20 (v/v), 0.5% NP-40 (v/v)) and the plate was incubated with shaking at 37° C. for 60 min. 20 μL of the substrate MUG (4-Methylumbelliferyl O-D-galactopyranoside) at 0.25 mg/ml was added and the fluorescence (excitation: 360 nm, emission: 450 mu) was measured with a TECAN Infinite F200 microplate reader after 3 hours incubation at 37° C. with shaking. The IC50 was determined using GraphPad PRISM after normalization to DMSO control.

[1] = IC50 at 40 mg/mL HSA, LB medium supplemented with human serum albumin 40 mg/mL
[2] = IC50 without HSA, LB medium, no human serum albumin, 18 hours incubation
[3] = LB medium supplemented with human serum albumin 40 mg/mL
[4] = LB medium, no human serum albumin, 18 hours incubation

T1 sequence (P0A0I7 whole entry): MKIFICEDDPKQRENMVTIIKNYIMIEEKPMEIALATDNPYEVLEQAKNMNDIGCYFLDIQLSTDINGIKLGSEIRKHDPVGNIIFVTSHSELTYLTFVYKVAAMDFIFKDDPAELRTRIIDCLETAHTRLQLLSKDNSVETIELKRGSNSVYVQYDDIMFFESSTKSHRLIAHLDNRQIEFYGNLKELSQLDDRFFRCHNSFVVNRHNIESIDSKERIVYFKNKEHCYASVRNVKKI

Compound | IC50 [1] | IC50 [2] | Ratio IC50 (in presence of HSA)/IC50 (in absence of HSA) | IC50 at 40 mg/mL HSA [3] | IC50 without HSA [4]
O=C(CN1CCN(c2ccc3c(=O)[nH]c4c(S(=O)(=O)c5ccc(C(F)(F)F)cc5)nnn4c3c2)CC1)N1CCOCC1 [Compound 169] | 16.5 to 82.6 µM | 1.65 to 8.26 µM | – | – | –
Cc1ccc(S(=O)(=O)c2nnn3c2[nH]c(=O)c2ccc(N4CCN(CC(=O)N5CCC(F)(F)CC5)CC4)cc23)c(C)c1 [Compound 64] | 16.7 to 83.4 µM | < 1.67 µM | – | – | –
Cc1ccc(S(=O)(=O)c2nnn3c2[nH]c(=O)c2ccc(N4CCN(CC(=O)N5CCC(CN)CC5)CC4)cc23)c(C)c1 [Compound 147] | 16.9 to 84.4 µM | 1.69 to 8.44 µM | – | – | –
Cc1ccc(S(=O)(=O)c2nnn3c2[nH]c(=O)c2ccc(N4CCN(CC(=O)NC(C)C)CC4)cc23)c(C)c1 [Compound 6] | < 18.6 µM | < 1.86 µM | – | – | –
CCN1CCCC1CNC(=O)CN1CCN(c2ccc3c(=O)[nH]c4c(S(=O)(=O)c5ccc(C)cc5C)nnn4c3c2)CC1 (stereo not shown) [Compound 93] | < 16.5 µM | 1.65 to 8.24 µM | – | – | –
Cc1ccc(S(=O)(=O)c2nnn3c2[nH]c(=O)c2ccc(N4CCCN(CC(=O)N5CCCC5)CC4)cc23)c(C)c1 [Compound 83] | – | – | +++ (+++: ratio ≤ 25) | +++ (+++: IC50 ≤ 10 μg/mL) | ++ (++: 1 μg/mL < IC50 ≤ 5 μg/mL)
Cc1ccc(S(=O)(=O)c2nnn3c2[nH]c(=O)c2ccc(N4CCN(CC(=O)NC5CCCC5)CC4)cc23)c(C)c1 [Compound 35] | < 17.7 µM | < 1.77 µM | – | – | –
CCCCCNC(=O)CN1CCN(c2ccc3c(=O)[nH]c4c(S(=O)(=O)c5ccc(C)cc5C)nnn4c3c2)CC1 [Compound 10] | 17.7 to 88.4 µM | < 1.77 µM | – | – | –
Cc1ccc(S(=O)(=O)c2nnn3c2[nH]c(=O)c2ccc(N4CCN(CC(=O)N5CCC6(CCCC6)C5)CC4)cc23)c(C)c1 [Compound 126] | 16.6 to 82.8 µM | < 1.66 µM | – | – | –
Cc1ccc(S(=O)(=O)c2nnn3c2[nH]c(=O)c2ccc(N4CCN(CC(=O)NCCc5ccncc5)CC4)cc23)c(C)c1 [Compound 175] | 16.6 to 83.2 µM | < 1.66 µM | – | – | –
Cc1ccc(S(=O)(=O)c2nnn3c2[nH]c(=O)c2ccc(N4CCN(CC(=O)N5CC(N)C5)CC4)cc23)c(C)c1 [Compound 139] | < 18.2 µM | 1.82 to 9.08 µM | – | – | –
Cc1ccc(S(=O)(=O)c2nnn3c2[nH]c(=O)c2ccc(N4CCN(CC(=O)N5CC(C)CC(C)C5)CC4)cc23)c(C)c1 (mixture of isomers) [Compound 63] | – | – | ++ (++: 25 < ratio ≤ 125) | ++ (++: 10 μg/mL < IC50 ≤ 50 μg/mL) | +++ (+++: IC50 ≤ 1 μg/mL)
Cc1ccc(S(=O)(=O)c2nnn3c2[nH]c(=O)c2ccc(N4CCN(CC(=O)NCc5ccccc5)CC4)cc23)c(C)c1 [Compound 106] | 17.1 to 85.4 µM | < 1.71 µM | – | – | –
Cc1ccc(S(=O)(=O)c2nnn3c2[nH]c(=O)c2ccc(N4CCN(CC(=O)NCC5CCN(C)CC5)CC4)cc23)c(C)c1 [Compound 88] | 16.5 to 82.4 µM | 1.65 to 8.24 µM | – | – | –
Cc1ccc(S(=O)(=O)c2nnn3c2[nH]c(=O)c2ccc(N4CCN(CC(=O)NC5CCCNC5)CC4)cc23)c(C)c1 (stereo not shown) [Compound 142] | < 17.3 µM | 1.73 to 8.64 µM | – | – | –
Cc1ccc(S(=O)(=O)c2nnn3c2[nH]c(=O)c2ccc(N4CCN(CC(=O)N5CCNCC5)CC4)cc23)c(C)c1 [Compound 134] | < 17.7 µM | 1.77 to 8.85 µM | – | – | –
Cc1ccc(S(=O)(=O)c2nnn3c2[nH]c(=O)c2ccc(N4CCCN(CC(=O)NCCO)CC4)cc23)c(C)c1 [Compound 32] | 18.1 to 90.3 µM | 1.81 to 9.03 µM | – | – | –
Cc1ccc(S(=O)(=O)c2nnn3c2[nH]c(=O)c2ccc(N4CCN(CC(=O)NCCCN5CCOCC5)CC4)cc23)c(C)c1 [Compound 92] | 16.1 to 80.3 µM | 1.61 to 8.03 µM | – | – | –

Compound | IC50 [1] | IC50 [2] | Ratio IC50 (in presence of HSA)/IC50 (in absence of HSA) | IC50 at 40 mg/mL HSA [3] | IC50 without HSA [4]
Cc1ccc(S(=O)(=O)c2nnn3c2[nH]c(=O)c2ccc(N4CCN(CC(=O)NC5CCN(C)CC5)CC4)cc23)c(C)c1 [Compound 86] | 16.9 to 84.4 µM | 1.69 to 8.44 µM | – | – | –
Cc1ccc(S(=O)(=O)c2nnn3c2[nH]c(=O)c2ccc(N4CCCN(CC(=O)N5CCNCC5)CC4)cc23)c(C)c1 [Compound 161] | < 17.3 µM | 1.73 to 8.64 µM | – | – | –
Cc1ccc(S(=O)(=O)c2nnn3c2[nH]c(=O)c2ccc(N4CCN(CC(=O)NC5CCNC5)CC4)cc23)c(C)c1 (stereo not shown) [Compound 136] | 17.7 to 88.5 µM | 1.77 to 8.85 µM | – | – | –
Cc1ccc(S(=O)(=O)c2nnn3c2[nH]c(=O)c2ccc(N4CCN(CC(=O)N5CCNC(=O)C5)CC4)cc23)c(C)c1 [Compound 62] | 17.3 to 86.4 µM | 1.73 to 8.64 µM | – | – | –
Cc1ccc(S(=O)(=O)c2nnn3c2[nH]c(=O)c2ccc(N4CCN(CC(=O)N5CCN6CCOCC6C5)CC4)cc23)c(C)c1 (stereo not shown) [Compound 129] | – | – | +++ (+++: ratio ≤ 25) | +++ (+++: IC50 ≤ 10 μg/mL) | +++ (+++: IC50 ≤ 1 μg/mL)
CCN(C)C(=O)CN1CCN(c2ccc3c(=O)[nH]c4c(S(=O)(=O)c5ccc(C)cc5C)nnn4c3c2)CC1 [Compound 9] | 18.6 to 93 µM | < 1.86 µM | – | – | –
Cc1ccc(S(=O)(=O)c2nnn3c2[nH]c(=O)c2ccc(N4CCN(CC(=O)NCCn5ccnc5)CC4)cc23)c(C)c1 [Compound 117] | 17 to 84.8 µM | 1.7 to 8.48 µM | – | – | –
Cc1ccc(S(=O)(=O)c2nnn3c2[nH]c(=O)c2ccc(N4CCN(CC(=O)Nc5ccccc5)CC4)cc23)c(C)c1 [Compound 104] | 17.5 to 87.5 µM | < 1.75 µM | – | – | –
Cc1ccc(S(=O)(=O)c2nnn3c2[nH]c(=O)c2ccc(N4CCN(CC(=O)N5CCC(N)C5)CC4)cc23)c(C)c1 (stereo not shown) [Compound 135] | 17.7 to 88.5 µM | 1.77 to 8.85 µM | – | – | –
Cc1ccc(S(=O)(=O)c2nnn3c2[nH]c(=O)c2ccc(N4CCN(CC(=O)NCc5cccc(O)c5)CC4)cc23)c(C)c1 [Compound 108] | 16.6 to 83.1 µM | < 1.66 µM | – | – | –
Cc1ccc(S(=O)(=O)c2nnn3c2[nH]c(=O)c2ccc(N4CCN(CC(=O)N5C[C@H]6CNC[C@H]6C5)CC4)cc23)c(C)c1 [Compound 153] | 16.9 to 84.6 µM | 1.69 to 8.46 µM | – | – | –
Cc1ccc(S(=O)(=O)c2nnn3c2[nH]c(=O)c2ccc(N4CCN(CC(=O)N5CCCC(CCN)C5)CC4)cc23)c(C)c1 (stereo not shown) [Compound 146] | – | – | +++ (+++: ratio ≤ 25) | +++ (+++: IC50 ≤ 10 μg/mL) | ++ (++: 1 μg/mL < IC50 ≤ 5 μg/mL)
Cc1ccc(S(=O)(=O)c2nnn3c2[nH]c(=O)c2ccc(N4CCN(CC(=O)N5CCC(O)C5)CC4)cc23)c(C)c1 (stereo not shown) [Compound 75] | – | – | +++ (+++: ratio ≤ 25) | ++ (++: 10 μg/mL < IC50 ≤ 50 μg/mL) | ++ (++: 1 μg/mL < IC50 ≤ 5 μg/mL)
C#CCNC(=O)CN1CCN(c2ccc3c(=O)[nH]c4c(S(=O)(=O)c5ccc(C)cc5C)nnn4c3c2)CC1 [Compound 23] | < 18.7 µM | 1.87 to 9.37 µM | – | – | –
COCCNC(=O)CN1CCCN(c2ccc3c(=O)[nH]c4c(S(=O)(=O)c5ccc(C)cc5C)nnn4c3c2)CC1 [Compound 31] | – | – | +++ (+++: ratio ≤ 25) | +++ (+++: IC50 ≤ 10 μg/mL) | +++ (+++: IC50 ≤ 1 μg/mL)
O=C(CN1CCN(c2ccc3c(=O)[nH]c4c(S(=O)(=O)c5ccc(C(F)(F)F)cc5)nnn4c3c2)CC1)N1CCCC1 [Compound 164] | 17 to 84.8 µM | 1.7 to 8.48 µM | – | – | –
Cc1ccc(S(=O)(=O)c2nnn3c2[nH]c(=O)c2ccc(N4CCN(CC(=O)NCC5CCCCC5)CC4)cc23)c(C)c1 [Compound 40] | < 16.9 µM | < 1.69 µM | – | – | –
